{"source": "paper PMC9820316", "about": "“Novel Arylpiperazine Derivatives of Salicylamide with α1-Adrenolytic Properties Showed Antiarrhythmic and Hypotensive Properties in Rats” (International Journal of Molecular Sciences, 2022)", "key": {"α1-adrenergic receptors": {"molecular_target": "α1-adrenergic receptors", "assay": "α1-adrenoceptor radioligand binding assay ([3H]-prazosin, rat cortex)", "conditions": "rat cortex tissue, mean ± SEM", "procedure,_shortened": "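Rat cerebral cortex membranes in 50 mM Tris-HCl pH 7.6, with 7–8 compound concentrations in duplicate. Nonspecific binding defined by 10 μM phentolamine for [3H]-prazosin (α1) or 10 μM clonidine for [3H]-clonidine (α2). Filtration and scintillation counting; Ki calculated.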"}, "α2-adrenergic receptors": {"molecular_target": "α2-adrenergic receptors", "assay": "α2-adrenoceptor radioligand binding assay ([3H]-clonidine, rat cortex)", "conditions": "rat cortex tissue, mean ± SEM, n.a. = did not bind at 10^−5 M", "method": "The α1- and α2-adrenoceptor radioligand binding assays were performed on the rat cerebral cortex using previously described methods. […] The brains were homogenized using the ULTRA-TURRAX homogenizer in 10 mL of an ice-cold 50 mM Tris-HCl buffer (pH 7.6). The homogenates were centrifuged at 20,000× g for 20 min (0–4 °C). Subsequently, the cell pellet was resuspended in the Tris–HCl buffer and centrifuged again. Radioligand binding assays were carried out in plates (MultiScreen/Millipore). The final incubation mixture, with a volume of 300 μL, consisted of 240 μL of the tissue suspension, 30 μL of the radioligand solution, and 30 μL of the buffer containing 7–8 concentrations of the studied compounds. In order to measure the unspecific binding, 10 μM phentolamine (for [^3H]-prazosin) or 10 μM clonidine (for [^3H]-clonidine) were utilized. The incubation was completed by rapid filtration through Whatman GF/C filters using a vacuum manifold (Millipore). The filters were then washed twice with the assay buffer and placed in scintillation vials with a liquid scintillation cocktail. Radioactivity was measured in a WALLAC 1409 DSA liquid scintillation counter (Perkin Elmer, USA). All the assays were performed in duplicates, and the inhibitory constants (Ki) were calculated."}, "[1]": {"system": "adrenaline-induced arrhythmia model in rats", "assay": "Prophylactic antiarrhythmic activity in adrenaline-induced arrhythmia", "assay_type": "in vivo, rat", "conditions": "for Blocks / Bradycardia / Extrasystoles / Mortality: number of animals with event"}, "[2]": {"system": "calcium chloride-induced arrhythmia model in rats", "assay": "Prophylactic antiarrhythmic activity in calcium chloride-induced arrhythmia", "assay_type": "in vivo, rat", "conditions": "5 mg/kg iv 15 min before calcium chloride 140 mg/kg; number of animals with event"}, "[3]": {"system": "aconitine-induced arrhythmia model in rats", "assay": "Prophylactic antiarrhythmic activity in aconitine-induced arrhythmia", "assay_type": "in vivo, rat", "conditions": "5 mg/kg iv 15 min before aconitine 20 μg/kg; number of animals with event"}, "normotensive rats": {"system": "normotensive rats", "assay": "Influence on blood pressure in the normotensive rats", "assay_type": "in vivo, rat", "conditions": "for DBP—diastolic blood pressure / SBP—systolic blood pressure: mean ± SD", "method": "The experiment was performed according to the method described earlier. Normotensive Wistar rats were anesthetized with thiopental (75 mg/kg ip). The right carotid artery was cannulated with a polyethylene tube filled with heparin solution, using a Datamax apparatus (Columbus Instruments, Columbus, OH, USA). After 15 min of the stabilization period, the studied compounds were administered iv, and their effect on systolic and diastolic blood pressure was evaluated (Figure 4A)."}, "[4]": {"system": "pressor response to methoxamine in rats", "assay": "Influence on blood vasopressor response to methoxamine in rats", "assay_type": "in vivo, rat", "conditions": "5 mg/kg iv, methoxamine 150 μg/kg before and 5 min after compound", "procedure,_shortened": "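Anaesthetised (thiopental 75 mg/kg ip) normotensive Wistar rats, carotid artery cannulated. Pressor response to methoxamine (150 µg/kg, iv) recorded before and 5 min after test compound, given at its lowest hypotensive dose, after 15-min stabilisation.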"}, "[5]": {"conditions": "0.25 mg/kg iv 15 min before adrenaline 20 μg/kg"}, "[6]": {"conditions": "0.5 mg/kg iv 15 min before adrenaline 20 μg/kg"}, "[7]": {"conditions": "1 mg/kg iv 15 min before adrenaline 20 μg/kg"}, "[8]": {"conditions": "2.5 mg/kg iv, 0 min (before administration)"}, "[9]": {"conditions": "5.0 mg/kg iv, 0 min (before administration)"}}, "note": "Marks after values point to notes of the source that are not given here.", "data": [{"smiles": "Cl.NC(=O)c1ccccc1OCCCCCCN1CCN(c2cccc(Cl)c2)CC1", "note": "[JJGW03, 2-{6-[4-(3-chlorophenyl)piperazin-1-ylo]hexoxy}benzamide hydrochloride]", "values": [{"measurement": "Adrenergic Receptors—pKi α1", "setting": "α1-adrenergic receptors", "result": "8.11 ± 0.01"}, {"measurement": "Adrenergic Receptors—pKi α2", "setting": "α2-adrenergic receptors", "result": "5.76 ± 0.02"}, {"measurement": "Blocks", "setting": "[1]; [5]", "result": "5/5"}, {"measurement": "Bradycardia", "setting": "[1]; [5]", "result": "5/5"}, {"measurement": "Extrasystoles", "setting": "[1]; [5]", "result": "5/5"}, {"measurement": "Mortality", "setting": "[1]; [5]", "result": "4/5"}, {"measurement": "Blocks", "setting": "[1]; [6]", "result": "5/5"}, {"measurement": "Bradycardia", "setting": "[1]; [6]", "result": "4/5"}, {"measurement": "Extrasystoles", "setting": "[1]; [6]", "result": "4/5"}, {"measurement": "Mortality", "setting": "[1]; [6]", "result": "4/5"}, {"measurement": "Blocks", "setting": "[1]; [7]", "result": "4/5"}, {"measurement": "Bradycardia", "setting": "[1]; [7]", "result": "1/5"}, {"measurement": "Extrasystoles", "setting": "[1]; [7]", "result": "4/5"}, {"measurement": "Mortality", "setting": "[1]; [7]", "result": "0/5"}, {"measurement": "ED50", "setting": "[1]; prophylactic, iv 15 min before adrenaline 20 μg/kg, confidence limits in brackets (Litchfield and Wilcoxon)", "result": "0.36 (0.08–1.56) mg/kg"}, {"measurement": "Blocks", "setting": "[2]", "result": "6/6"}, {"measurement": "Bradycardia", "setting": "[2]", "result": "6/6"}, {"measurement": "Extrasystoles", "setting": "[2]", "result": "6/6"}, {"measurement": "Fibrillations", "setting": "[2]", "result": "4/6"}, {"measurement": "Mortality", "setting": "[2]", "result": "5/6"}, {"measurement": "Blocks", "setting": "[3]", "result": "6/6"}, {"measurement": "Bradycardia", "setting": "[3]", "result": "6/6"}, {"measurement": "Extrasystoles", "setting": "[3]", "result": "6/6"}, {"measurement": "Fibrillations", "setting": "[3]", "result": "6/6"}, {"measurement": "Mortality", "setting": "[3]", "result": "6/6"}, {"measurement": "DBP—diastolic blood pressure", "setting": "normotensive rats; [8]", "result": "89.3 ± 15.6", "unit": "mmHg"}, {"measurement": "SBP—systolic blood pressure", "setting": "normotensive rats; [8]", "result": "123.8 ± 17.4", "unit": "mmHg"}, {"measurement": "DBP—diastolic blood pressure", "setting": "normotensive rats; 2.5 mg/kg iv, 5 min", "result": "83.3 ± 12.8", "unit": "mmHg"}, {"measurement": "SBP—systolic blood pressure", "setting": "normotensive rats; 2.5 mg/kg iv, 5 min", "result": "112.5 ± 13.8", "unit": "mmHg"}, {"measurement": "DBP—diastolic blood pressure", "setting": "normotensive rats; 2.5 mg/kg iv, 10 min", "result": "84.8 ± 14.7", "unit": "mmHg"}, {"measurement": "SBP—systolic blood pressure", "setting": "normotensive rats; 2.5 mg/kg iv, 10 min", "result": "109.8 ± 13.5", "unit": "mmHg"}, {"measurement": "DBP—diastolic blood pressure", "setting": "normotensive rats; 2.5 mg/kg iv, 20 min", "result": "86.0 ± 15.8", "unit": "mmHg"}, {"measurement": "SBP—systolic blood pressure", "setting": "normotensive rats; 2.5 mg/kg iv, 20 min", "result": "108.8 ± 15.6", "unit": "mmHg"}, {"measurement": "DBP—diastolic blood pressure", "setting": "normotensive rats; 2.5 mg/kg iv, 30 min", "result": "85.5 ± 14.7", "unit": "mmHg"}, {"measurement": "SBP—systolic blood pressure", "setting": "normotensive rats; 2.5 mg/kg iv, 30 min", "result": "111.8 ± 20.5", "unit": "mmHg"}, {"measurement": "DBP—diastolic blood pressure", "setting": "normotensive rats; 2.5 mg/kg iv, 40 min", "result": "83.7 ± 15.6", "unit": "mmHg"}, {"measurement": "SBP—systolic blood pressure", "setting": "normotensive rats; 2.5 mg/kg iv, 40 min", "result": "111.2 ± 22.3", "unit": "mmHg"}, {"measurement": "DBP—diastolic blood pressure", "setting": "normotensive rats; 2.5 mg/kg iv, 50 min", "result": "81.2 ± 15.0", "unit": "mmHg"}, {"measurement": "SBP—systolic blood pressure", "setting": "normotensive rats; 2.5 mg/kg iv, 50 min", "result": "107.7 ± 19.7", "unit": "mmHg"}, {"measurement": "DBP—diastolic blood pressure", "setting": "normotensive rats; 2.5 mg/kg iv, 60 min", "result": "79.5 ± 15.4", "unit": "mmHg"}, {"measurement": "SBP—systolic blood pressure", "setting": "normotensive rats; 2.5 mg/kg iv, 60 min", "result": "109.2 ± 21.9", "unit": "mmHg"}, {"measurement": "DBP—diastolic blood pressure", "setting": "normotensive rats; [9]", "result": "101.5 ± 6.1", "unit": "mmHg"}, {"measurement": "SBP—systolic blood pressure", "setting": "normotensive rats; [9]", "result": "128.5 ± 8.6", "unit": "mmHg"}, {"measurement": "decrease of the diastolic blood pressure", "setting": "normotensive rats; 5 mg/kg iv, 5th min after administration", "result": 18, "unit": "%"}, {"measurement": "decrease of the diastolic blood pressure", "setting": "normotensive rats; 5 mg/kg iv, 10th min after administration", "result": 20, "unit": "%"}, {"measurement": "DBP—diastolic blood pressure", "setting": "normotensive rats; 5.0 mg/kg iv, 5 min", "result": "83.2 ± 5.0 ^a mmHg"}, {"measurement": "SBP—systolic blood pressure", "setting": "normotensive rats; 5.0 mg/kg iv, 5 min", "result": "108.0 ± 6.6 ^d mmHg"}, {"measurement": "DBP—diastolic blood pressure", "setting": "normotensive rats; 5.0 mg/kg iv, 10 min", "result": "81.2 ± 4.0 ^a mmHg"}, {"measurement": "SBP—systolic blood pressure", "setting": "normotensive rats; 5.0 mg/kg iv, 10 min", "result": "104.3 ± 6.3 ^d mmHg"}, {"measurement": "DBP—diastolic blood pressure", "setting": "normotensive rats; 5.0 mg/kg iv, 20 min", "result": "82.0 ± 4.2", "unit": "mmHg"}, {"measurement": "SBP—systolic blood pressure", "setting": "normotensive rats; 5.0 mg/kg iv, 20 min", "result": "101.3 ± 4.5 ^d mmHg"}, {"measurement": "DBP—diastolic blood pressure", "setting": "normotensive rats; 5.0 mg/kg iv, 30 min", "result": "83.5 ± 4.3", "unit": "mmHg"}, {"measurement": "SBP—systolic blood pressure", "setting": "normotensive rats; 5.0 mg/kg iv, 30 min", "result": "102.3 ± 6.9 ^d mmHg"}, {"measurement": "DBP—diastolic blood pressure", "setting": "normotensive rats; 5.0 mg/kg iv, 40 min", "result": "85.5 ± 5.8", "unit": "mmHg"}, {"measurement": "SBP—systolic blood pressure", "setting": "normotensive rats; 5.0 mg/kg iv, 40 min", "result": "104.3 ± 3.9^b mmHg"}, {"measurement": "DBP—diastolic blood pressure", "setting": "normotensive rats; 5.0 mg/kg iv, 50 min", "result": "86.7 ± 6.0", "unit": "mmHg"}, {"measurement": "SBP—systolic blood pressure", "setting": "normotensive rats; 5.0 mg/kg iv, 50 min", "result": "106.0 ± 7.9 ^c mmHg"}, {"measurement": "DBP—diastolic blood pressure", "setting": "normotensive rats; 5.0 mg/kg iv, 60 min", "result": "87.5 ± 6.3", "unit": "mmHg"}, {"measurement": "SBP—systolic blood pressure", "setting": "normotensive rats; 5.0 mg/kg iv, 60 min", "result": "107.3 ± 6.1 ^b mmHg"}, {"measurement": "decrease of the systolic blood pressure", "setting": "normotensive rats; 5 mg/kg iv, from the 5th to 60th min after administration", "result": "16–21%"}, {"measurement": "attenuation of the methoxamine pressor response", "setting": "[4]", "result": 99, "unit": "%"}]}]}
